According to patent publication US5377676A, “Method for determining the biodistribution of substances using fluorescence spectroscopy” (Cedars-Sinai Medical Center, priority 1993, dated 1995):

Experiments:
[1] = Photofrin biodistribution by laser induced fluorescence spectroscopy (LIFS); type: in vivo, male Lobund-Wistar rats
Description: (§1) The experimental arrangement used to measure the fluorescence spectra during abdominal exploration included a Helium-cadmium laser (Omnichrome, Chino, Calif.) operating at 442 nm as an excitation source. A 400 micron core diameter fiber was directed at the tissue in contact mode producing a low power (17 mW) illumination. Using the same fiber, reflected and emitted light was returned to the input of a SPEX 500 spectrometer (1422 G EG&G).
(§2) Laser output was reflected at a right angle by a dichroic mirror (HR/442 nm-H7>500 nm, CVI, New Mexico) and was focused at the input of a 400 micron core diameter fiberoptic probe. The excitation output of the laser at the distal end of the fiber was 17 mW. Fluorescence was collected using the same fiber and was transmitted through the dichroic beamsplitter and guided via a fiber bundle to a 0.5 spectrograph (100 g/mm diffraction grating with a split width of 50 microns). The light was then imaged at the modified output port. A 1024 element linear diode array detector (EG&G 1422G) was attached to the exit port, and the signal was directed to a multichannel intensifier. A longpass glass filter (Schott GG475) was used to exclude the excitation light from the detector and conversions were made by an analog to digital converter and automatically stored by a computer. […] Background spectra were recorded before excitation and subtracted from the resulting data. The detection system, including the detector attenuation filter, lenses and spectrograph, was not altered or corrected for a uniform spectral response.
(§3) Spectra from the surfaces of tumor (T), skin (S), muscle (M), liver (L), kidney (K), spleen (Sp), stomach (St), small bowel (SB) and large bowel (LB) were acquired and analyzed by the OMA. […] (FIG. 1 is a schematic representation of this experimental arrangement.) A series of spectra for Photofrin and BPD-MA were recorded from photosensitized animals. (FIGS. 2 and 3). The fluorescence intensities at 540 nm (auto-fluorescence) and 630 nm (Photofrin) or 690 nm (BPD-MA) were simultaneously monitored at three sites for each organ. By using the ratio of these intensities, (I630 nm /I540 nm) or (I690 nm /540 nm), a relative value could be assigned to each area studied. In addition, this intensity ratio eliminated any geometric factor (fiber position) influence in the calibration, as well as calibration errors. The corresponding intensity ratios were used as an index for drug presence in the various tissues.
(§4) The fluorescence emitted from cancerous and normal tissues of male Lobund-Wistar rats was investigated (Lobund Laboratory, Notre Dame University, Id.). All tumors were subcutaneously implanted by inoculating 10^5 viable cells of Pollard rat prostatic adenocarcinoma (PA-III) into the right flank of each animal. This tumor model was selected because it is known to metastasize uniformly and spontaneously from extravascular sites only through ipsilateral lymphatic channels. Because of this tumor's unique, predictable spread, the contralateral side of the animal could be used as a control. In addition, cancer detection is facilitated with this model because rats with PA-III cells survive beyond forty days after implantation without evidence of physical impairment.
After forty-two days of observation, Photofrin (QLT Phototherapeutics, Inc., Vancouver, Canada) was administered intraperitoneally to forty-one animals 24-48 hours prior to surgical exploration in doses ranging from 0.25-7.5 mg/kg. Six animals were injected 24 hours prior to surgical exploration with 0.75 mg/kg of Photofrin. Thirty animals were injected with six different concentrations of Photofrin 48 hours prior to surgical exploration (7.5 mg/kg (n=5), 2.5 mg/kg (n=4), 1.5 mg/kg (n=3), 0.75 mg/kg (n=11), 0.50 mg/kg (n=4), and 0.25 mg/kg (n=3)). Five animals which had not been inoculated with PA-III were injected with 0.75 mg/kg 48 hours prior to surgical exploration, and served as a control. […]

[2] = Absorption / fluorescence of the photosensitizer; type: physicochemical; settings: 442 nm excitation
Description: as §1
Laser output was reflected at a right angle by a dichroic mirror (HR/442 nm-H7>500 nm, CVI, New Mexico) and was focused at the input of a 400 micron core diameter fiberoptic probe. The excitation output of the laser at the distal end of the fiber was 17 mW. Fluorescence was collected using the same fiber and was transmitted through the dichroic beamsplitter and guided via a fiber bundle to a 0.5 spectrograph (100 g/mm diffraction grating with a split width of 50 microns). […] Background spectra were recorded before excitation and subtracted from the resulting data. […]
Spectra from the surfaces of tumor (T), skin (S), muscle (M), liver (L), kidney (K), spleen (Sp), stomach (St), small bowel (SB) and large bowel (LB) were acquired and analyzed by the OMA. […] (FIG. 1 is a schematic representation of this experimental arrangement.) A series of spectra for Photofrin and BPD-MA were recorded from photosensitized animals. […]

[3] = BPD-MA biodistribution by LIFS, Study #1; set-up: species or system male Lobund-Wistar rats; settings: rat, in vivo, iv, 0.5 mg/kg
[4] = set-up: species or system male Lobund-Wistar rats; settings: rat, in vivo, iv, 0.75 mg/kg
Description: as §1, §2, §3, §4
(§5) Two separate experiments were performed to assess the biodistribution of BPD-MA. The first study involved 21 animals and two doses of BPD-MA, 0.25 mg/kg and 0.50 mg/kg, to determine the concentration effect of BPD-MA in various tissues. The second study involved 81 animals and 0.75 mg/kg of BPD-MA to determine the biodistribution of BPD-MA and the sensitivity and specificity of LIFS biodistribution measurements.
BPD-MA (QLT Phototherapeutics, Inc., Vancouver, Canada) was administered intravenously in a dose of 0.75 mg/kg to 81 animals 4 hours prior to surgical exploration.
As in Study #1, the animals were anesthetized with Ketamine 40 mg/kg and Xylazine 5.0 mg/kg intraperitoneally, and the abdomens opened through a midline incision. […]

[5] = BPD-MA biodistribution by LIFS, Study #1; type: in vivo, male Lobund-Wistar rats; settings: for I(690 nm)/I(540 nm), kidney / I(690 nm)/I(540 nm), large bowel / I(690 nm)/I(540 nm), liver / I(690 nm)/I(540 nm), mesenteric lymph nodes (MCLN) / I(690 nm)/I(540 nm), metast. L. node / I(690 nm)/I(540 nm), muscle / I(690 nm)/I(540 nm), non-met L. node / I(690 nm)/I(540 nm), skin / I(690 nm)/I(540 nm), small bowel: mean ± SD
Description: as §1, §2, §3, §4, §5
BPD-MA (QLT Phototherapeutics, Inc., Vancouver, Canada) was administered to 21 animals intravenously. The animals were divided into three groups of seven animals each and injected with two different doses of BPD-MA, 0.25 mg/kg (n=7) and 0.50 mg/kg (n=7) 4-6 hours prior to surgical exploration. Seven animals served as a control. […]

[6] = in vivo; cited from earlier work
[7] = after excitation by blue light; cited from earlier work
[8] = 1.5 mg/kg i.p., 48 h, PA-III rats, mean ± SD
[9] = 2.5 mg/kg i.p., 48 h, PA-III rats, mean ± SD
[10] = 7.5 mg/kg i.p., 48 h, PA-III rats, mean ± SD

Photofrin
Fluorescence intensity ratio (I630 nm/I540 nm), skin [1, 8]: 0.23 ± 0.06
Fluorescence intensity ratio (I630 nm/I540 nm), small bowel [1, 8]: 0.56 ± 0.08
Fluorescence intensity ratio (I630 nm/I540 nm), spleen [1, 8]: 1.25 ± 0.35
Fluorescence intensity ratio (I630 nm/I540 nm), stomach [1, 8]: 0.92 ± 0.12
Fluorescence intensity ratio (I630 nm/I540 nm), tumor [1, 8]: 0.36 ± 0.01
Fluorescence intensity ratio (I630 nm/I540 nm), non metas L. node [1, 9]: 1.75 ± 1.06
Fluorescence intensity ratio (I630 nm/I540 nm), skin [1, 9]: 0.22 ± 0.04
Fluorescence intensity ratio (I630 nm/I540 nm), small bowel [1, 9]: 0.57 ± 0.30
Fluorescence intensity ratio (I630 nm/I540 nm), spleen [1, 9]: 0.72 ± 0.25
Fluorescence intensity ratio (I630 nm/I540 nm), stomach [1, 9]: 0.26 ± 0.01
Fluorescence intensity ratio (I630 nm/I540 nm), tumor [1, 9]: 0.70 ± 0.43
Fluorescence intensity ratio (I630 nm/I540 nm), skin [1, 10]: 0.25 ± 0.04
Fluorescence intensity ratio (I630 nm/I540 nm), small bowel [1, 10]: 0.96 ± 0.33
Fluorescence intensity ratio (I630 nm/I540 nm), spleen [1, 10]: 1.56 ± 0.68
Fluorescence intensity ratio (I630 nm/I540 nm), stomach [1, 10]: 0.62 ± 0.24
Fluorescence intensity ratio (I630 nm/I540 nm), tumor [1, 10]: 2.45 ± 1.00
Dose at which metastatic and non-metastatic lymph nodes are distinguished (selectivity) ([1]; rat, in vivo, 2880 min): higher than 0.25 mg/kg
Characteristic fluorescence peak [2]: ~ 630 nm

Benzoporphyrin derivative monoacid-A [BPD-MA]
Fluorescence intensity ratio (I630 nm/I540 nm), metastatic tissue [3]: 6.73 ± 2.39
Fluorescence intensity ratio mean, Left Iliac LN (LILN) [4]: 5.22
Fluorescence intensity ratio mean, Mesenteric I LN (MC I) [4]: 2.45
Fluorescence intensity ratio mean, Mesenteric II LN (MC II) [4]: 2.37
Fluorescence intensity ratio mean, Right Iliac LN (RILN) [4]: 5.86
Fluorescence intensity ratio mean, Right Inguinal LN (RIN) [4]: 4.72
Fluorescence intensity ratio mean, Right Para-Aortic LN (RPAR) [4]: 7.40
Fluorescence intensity ratio mean, Right Sub-Renalis LN (RSBR) [4]: 4.50
Fluorescence intensity ratio mean, Right Supra-Renalis LN (RSPR) [4]: 4.26
Fluorescence intensity ratio mean, inflammatory LN [4]: 3.67
Fluorescence intensity ratio mean, metastatic LN [4]: 6.26
Fluorescence intensity ratio mean, normal LN [4]: 3.06
I(690 nm)/I(540 nm), kidney ([5]; 4 Hours, 0.25 mg/kg i.v.): 1.04 ± 0.40
I(690 nm)/I(540 nm), large bowel ([5]; 4 Hours, 0.25 mg/kg i.v.): 1.27 ± 0.30
I(690 nm)/I(540 nm), liver ([5]; 4 Hours, 0.25 mg/kg i.v.): 7.83 ± 3.69
I(690 nm)/I(540 nm), mesenteric lymph nodes (MCLN) ([5]; 4 Hours, 0.25 mg/kg i.v.): 1.40 ± 0.27
I(690 nm)/I(540 nm), metast. L. node ([5]; 4 Hours, 0.25 mg/kg i.v.): 3.19 ± 2.31
I(690 nm)/I(540 nm), muscle ([5]; 4 Hours, 0.25 mg/kg i.v.): 1.73 ± 0.47
I(690 nm)/I(540 nm), non-met L. node ([5]; 4 Hours, 0.25 mg/kg i.v.): 3.55 ± 1.77
I(690 nm)/I(540 nm), skin ([5]; 4 Hours, 0.25 mg/kg i.v.): 0.31 ± 0.12
I(690 nm)/I(540 nm), small bowel ([5]; 4 Hours, 0.25 mg/kg i.v.): 7.63 ± 2.73
I(690 nm)/I(540 nm), kidney ([5]; 4 Hours, 0.50 mg/kg i.v.): 1.57 ± 0.32
I(690 nm)/I(540 nm), large bowel ([5]; 4 Hours, 0.50 mg/kg i.v.): 1.59 ± 0.45
I(690 nm)/I(540 nm), liver ([5]; 4 Hours, 0.50 mg/kg i.v.): 15.74 ± 9.25
I(690 nm)/I(540 nm), mesenteric lymph nodes (MCLN) ([5]; 4 Hours, 0.50 mg/kg i.v.): 3.12 ± 0.99
I(690 nm)/I(540 nm), metast. L. node ([5]; 4 Hours, 0.50 mg/kg i.v.): 6.73 ± 2.39
I(690 nm)/I(540 nm), muscle ([5]; 4 Hours, 0.50 mg/kg i.v.): 1.62 ± 0.82
I(690 nm)/I(540 nm), non-met L. node ([5]; 4 Hours, 0.50 mg/kg i.v.): 2.65 ± 0.62
I(690 nm)/I(540 nm), skin ([5]; 4 Hours, 0.50 mg/kg i.v.): 0.50 ± 0.17
I(690 nm)/I(540 nm), small bowel ([5]; 4 Hours, 0.50 mg/kg i.v.): 9.91 ± 5.08
I(690 nm)/I(540 nm), kidney ([5]; 6 Hours, 0.25 mg/kg i.v.): 0.78 ± 0.19
I(690 nm)/I(540 nm), large bowel ([5]; 6 Hours, 0.25 mg/kg i.v.): 2.37 ± 1.48
I(690 nm)/I(540 nm), liver ([5]; 6 Hours, 0.25 mg/kg i.v.): 5.20 ± 2.38
I(690 nm)/I(540 nm), mesenteric lymph nodes (MCLN) ([5]; 6 Hours, 0.25 mg/kg i.v.): 1.43 ± 0.67
I(690 nm)/I(540 nm), metast. L. node ([5]; 6 Hours, 0.25 mg/kg i.v.): 3.70 ± 2.82
I(690 nm)/I(540 nm), muscle ([5]; 6 Hours, 0.25 mg/kg i.v.): 0.78 ± 0.26
I(690 nm)/I(540 nm), non-met L. node ([5]; 6 Hours, 0.25 mg/kg i.v.): 2.77 ± 2.25
I(690 nm)/I(540 nm), skin ([5]; 6 Hours, 0.25 mg/kg i.v.): 0.30 ± 0.15
I(690 nm)/I(540 nm), small bowel ([5]; 6 Hours, 0.25 mg/kg i.v.): 4.98 ± 2.83
BPD-MA retention in organs with time ([5]; rat, in vivo, iv): BPD-MA retention in all organs decreased with time
Fluorescence intensity ratio (I630 nm/I540 nm), non-metastatic tissue ([5]; rat, in vivo, iv, 0.5 mg/kg): 2.65 ± 0.62
I(690 nm)/I(540 nm), spleen ([5]; rat, in vivo, iv, 0.5 mg/kg): 1.57 ± 0.31
I(690 nm)/I(540 nm), stomach ([5]; rat, in vivo, iv, 0.5 mg/kg): 2.95 ± 1.10
I(690 nm)/I(540 nm), tumor ([5]; rat, in vivo, iv, 0.5 mg/kg): 3.44 ± 1.14
Photosensitivity of the skin [6]: dramatically decreased photosensitivity of the skin
Characteristic red fluorescence peak [7]: approximately 690 nm
